Measurements published in patent publication US20250177473A1, “PEPTIDE REGULATORS OF METABOLISM” (Metabico, Inc., priority 2022, published 2025).
Residues, ends and D or L forms follow the SMILES beside them.

Columns and labels:
[1] = test system: pStat3 (Y705) in the hypothalamus; assay: pStat3 (Y705) immunohistochemistry of mouse hypothalamus after administration; type: in vivo, C57Bl/6J mice; conditions: 60 minutes after administration; EPSI 10 mg/kg intranasally; leptin 5 mg/mL intraperitoneally; 24 h food deprivation
Method: Fifteen C57Bl/6J 15 weeks old mice (5 animals per group) were used in the study.
We performed food deprivation 24 hours prior to the administration of the compounds. The animals of the experimental group were administered with 10 mg/kg EPSI intranasally (EPSI was dissolved in 10 μL of saline per mouse, 5 μL in each nostril). Positive control animals were administered with 5 mg/mL leptin intraperitoneally (leptin was dissolved in 100 μL of saline per mouse). Negative control mice were administered with 100 μL of saline intraperitoneally. The mice were euthanized 60 minutes after the administration of the compounds.
Narcosis was performed using the combination of Zoletil (20 mg/kg) and Rometar (5 mg/kg). Next, transcardial perfusion was performed with saline to wash out the blood, then with a 10% formalin solution. After complete fixation, the animal bodies were decapitated, the brain was extracted and additionally fixed in 10% formalin, after which it was washed in PBS 3 times for 30 minutes and placed overnight in a 30% sucrose solution in PBS until the tissue was completely impregnated.
The brain samples were placed in a mold, and poured with the freezing medium. […]
The images were received using an inverted microscope Nikon Eclipse Ni. The number of positive cells was calculated using ImageJ software. […]

[2] = test system: male mice of CBA and C57Bl/6 hybrids, food deprived 12 hours; assay: Home cage feed consumption test; type: in vivo, mouse; conditions: leptin 1 mg/kg i.p. before testing
Method: The work was performed on 30 mature male mice of the first generation of CBA and C57Bl/6 hybrids weighing 22-24 grams. The animals were divided into treatment groups (Table 1).
Solutions for intranasal (i.n.) administration were prepared by dissolving the peptide in saline. The volume of i.n. administration: 1 μl per 1 g of animal weight. Solutions for intraperitoneal (i.p.) administration were prepared by dissolving the drug in saline. The volume of […]. administration: 10 μl per 1 g of animal weight. Solutions were prepared directly on the day of the experiment before the experiment.
All manipulations with animals were performed at the end of the adaptation period of 14 days.
Day 1—Adaptation of animals to the home cage food consumption test. In the evening, animals were deprived of food for 12 hours (overnight).
Day 2—Administration of the test substances and the food consumption test in a home cage for 1.5 hours. Before and after the test, the animals were weighed.
This test was performed to assess the appetite of animals after the treatment with tested compounds. The test was performed in 2 days. […]
Statistical data processing was carried out using nonparametric criteria (Mann-Whitney) for samples with a distribution other than normal. Normally distributed data were analyzed with one-way ANOVA (only Treatment factor) or repeated measures ANOVA (dynamics) with post hoc Fisher test. […]

[3] = target: T1, NPSR1 (the receptor of neuropeptide S) (Homo sapiens, UniProt Q6W5P4); assay: Full Functional GPCR Panel (Eurofins Cerep): NPSR1, intracellular Ca2+; type: cell-based; conditions: EPSI 100 μM; 10 nM NPS; HEK-293 cells expressing NPSR1
T1 construct: host or cells: HEK-293
T1 sequence (Q6W5P4 1-371): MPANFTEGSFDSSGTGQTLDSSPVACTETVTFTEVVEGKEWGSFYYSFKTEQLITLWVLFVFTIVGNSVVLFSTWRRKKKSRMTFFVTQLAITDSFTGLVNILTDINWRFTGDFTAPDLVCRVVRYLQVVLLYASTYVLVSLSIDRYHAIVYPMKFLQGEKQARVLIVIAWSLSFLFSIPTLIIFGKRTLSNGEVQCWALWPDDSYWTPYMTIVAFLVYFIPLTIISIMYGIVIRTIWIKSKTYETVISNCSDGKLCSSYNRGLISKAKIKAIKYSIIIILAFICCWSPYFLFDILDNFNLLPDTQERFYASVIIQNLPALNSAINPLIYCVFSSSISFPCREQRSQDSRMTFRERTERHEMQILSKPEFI
Method: (§1) EPSI peptide was tested in the dose of 100 μM in 326 functional assays (163 GPCRs both in agonist and antagonist modes) combined in Full Functional GPCR Panel (item P343) provided by Eurofins Cerep SA.
(§2) Each cell-based assay was performed by application of the peptide to cell lines expressing individual receptors with subsequent measuring Ca2+, IP1, or cAMP depending on the receptor type. In the case of antagonist mode assays, the peptide was applied together with the control agonist.
(§3) Cellular agonist effect was calculated as a % of control response to a known reference agonist for each target and cellular antagonist effect was calculated as a % inhibition of control reference agonist response for each target.
EPSI peptide induced activating effect provided by 10 nM of control agonist NPS (neuropeptide S) by 56.4±8.5% in HEK-293 cells expressing NPSR1 (the receptor of neuropeptide S). Activation of NPSR1 was measured by the changes in intracellular Ca2+ levels.

[4] = target: T2, GPR109A receptor (Homo sapiens, UniProt Q8TDS4); assay: Full Functional GPCR Panel: GPR109A antagonist mode; type: cell-based; conditions: EPSI 100 μM; 300 nM nicotinic acid; RBL cells expressing GPR109A
T2 construct: host or cells: RBL
T2 sequence (Q8TDS4 whole entry): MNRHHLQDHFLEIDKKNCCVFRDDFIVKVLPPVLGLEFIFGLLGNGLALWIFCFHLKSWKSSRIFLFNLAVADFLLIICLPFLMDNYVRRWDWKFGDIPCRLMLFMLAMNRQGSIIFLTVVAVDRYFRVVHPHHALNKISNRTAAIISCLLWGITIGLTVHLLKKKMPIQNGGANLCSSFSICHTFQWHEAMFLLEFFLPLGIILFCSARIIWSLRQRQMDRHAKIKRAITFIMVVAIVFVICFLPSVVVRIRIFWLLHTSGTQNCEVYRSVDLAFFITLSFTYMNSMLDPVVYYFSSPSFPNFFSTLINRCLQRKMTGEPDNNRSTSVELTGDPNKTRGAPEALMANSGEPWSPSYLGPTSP
Method: as §1, §2, §3

[5] = target: T3, FFAR2 (GPR43) receptor (Homo sapiens, UniProt O15552); assay: FFAR2 cell-based functional antagonist assay, intracellular Ca2+; conditions: EPSI 100 μM; 1 mM sodium acetate; HEK-293 cells expressing FFAR2
T3 construct: host or cells: HEK-293
T3 sequence (O15552 1-330): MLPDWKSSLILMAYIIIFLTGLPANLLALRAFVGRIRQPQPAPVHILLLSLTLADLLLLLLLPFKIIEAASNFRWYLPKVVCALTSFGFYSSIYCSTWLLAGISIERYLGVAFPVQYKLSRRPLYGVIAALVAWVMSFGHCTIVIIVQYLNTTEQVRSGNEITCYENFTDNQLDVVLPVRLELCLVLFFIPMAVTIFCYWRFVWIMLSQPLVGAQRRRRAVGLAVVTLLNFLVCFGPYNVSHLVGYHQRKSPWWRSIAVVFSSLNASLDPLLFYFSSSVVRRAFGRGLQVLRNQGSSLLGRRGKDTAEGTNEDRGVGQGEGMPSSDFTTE
Method: as §1, §2, §3
EPSI peptide acted as antagonist of FFAR2 (GPR43) receptor reducing by 28.0±1.5% the signal induced by 1 mM of sodium acetate in HEK-293 cells expressing FFAR2.
EPSI peptide was tested in the doses of 0.03, 0.16, 4, and 20 μM in FFAR2 cell-based functional antagonistic assay provided by Eurofins Cerep SA. The assay was performed in HEK-293 cell line expressing FFAR2 and stimulated with 1 mM sodium acetate (control reference agonist) for FFAR2 signaling induction. Fluorimetric measurement of intracellular Ca2+ levels was performed after the peptide application. Cellular antagonist effect was calculated as a % inhibition of control reference agonist response.

[6] = target: T4, LPAR3 (Homo sapiens, UniProt Q9UBY5); assay: Full Functional GPCR Panel: LPAR3; type: cell-based; conditions: EPSI 100 μM; 30 nM Lysophosphatidic acid; CHO cells expressing LPAR3
T4 construct: host or cells: CHO
T4 sequence (Q9UBY5 1-353): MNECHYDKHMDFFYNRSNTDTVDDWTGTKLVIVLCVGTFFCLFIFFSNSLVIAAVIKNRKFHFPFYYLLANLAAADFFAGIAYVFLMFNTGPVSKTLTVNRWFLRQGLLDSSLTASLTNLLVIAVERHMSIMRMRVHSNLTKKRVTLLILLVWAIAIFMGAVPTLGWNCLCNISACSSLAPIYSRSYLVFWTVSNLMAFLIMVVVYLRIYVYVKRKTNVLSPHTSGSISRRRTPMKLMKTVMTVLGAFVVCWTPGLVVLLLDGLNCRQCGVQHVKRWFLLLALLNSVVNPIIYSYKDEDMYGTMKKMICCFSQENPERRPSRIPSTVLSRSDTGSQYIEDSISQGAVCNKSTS
Method: as §1, §2, §3
EPSI peptide induced activating effect provided by 30 nM of control agonist Lysophosphatidic acid by 29.2±3.0% in CHO cells expressing LPAR3.

[7] = target: T5, M2 muscarinic receptor (Homo sapiens, UniProt P08172); assay: Full Functional GPCR Panel: M2 muscarinic receptor, cAMP; type: cell-based; conditions: EPSI 100 μM; vs 3 μM acetylcholine; CHO cells expressing M2
T5 construct: host or cells: CHO
T5 sequence (P08172 1-466): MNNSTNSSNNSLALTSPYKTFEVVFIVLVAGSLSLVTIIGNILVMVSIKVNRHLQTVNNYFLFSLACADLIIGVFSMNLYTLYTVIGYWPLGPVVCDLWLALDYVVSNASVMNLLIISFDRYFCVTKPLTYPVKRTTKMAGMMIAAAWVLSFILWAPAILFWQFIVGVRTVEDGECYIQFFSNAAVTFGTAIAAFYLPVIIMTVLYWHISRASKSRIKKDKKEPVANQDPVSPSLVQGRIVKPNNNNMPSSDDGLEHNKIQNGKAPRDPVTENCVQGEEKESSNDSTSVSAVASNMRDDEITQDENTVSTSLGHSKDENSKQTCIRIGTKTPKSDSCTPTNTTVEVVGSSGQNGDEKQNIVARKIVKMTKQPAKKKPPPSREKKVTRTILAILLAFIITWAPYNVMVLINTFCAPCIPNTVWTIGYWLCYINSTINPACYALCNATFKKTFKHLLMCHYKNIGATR
Method: as §1, §2, §3

[8] = test system: C57BL/6 mice on a high-fat diet; assay: Tolerability observations in HFD mice study; type: in vivo, mouse; conditions: EPSI 5 mg/kg i.n. and i.p.
Method: Groups of 10 animals were formed from the existing groups from Stage 2, with similar mean body weight (Table 6). The animals' bodyweight was monitored three times a week, water, and feed consumption—weekly. After the last treatment, the animals were euthanized for necropsy and their blood collected. The internal organs were examined for the presence of macro damage and weighed. The adipose tissue surrounding the epididymis was evaluated as a marker of obesity in animals. For histological examination, samples of adipose tissue and liver tissue were fixed in 10% formalin solution for further histological analysis.
During necropsy, the body's external state, internal surfaces, the cranial cavity, chest, abdominal and pelvic cavities with organs and tissues located in them, the neck with organs and tissues, the skeleton, and the musculoskeletal system were examined. The organs and tissues were fixed in 10% formalin. Liver and adipose tissue samples were weighed and stored in 10% formalin for subsequent histological analysis.

Row | Compound | pStat3-positive cells in hypothalamic sections (ratio to total nuclei) [1] [%] | amount of food consumed over 90 minutes vs control [2] | induction of activating effect of control agonist NPS (intracellular Ca2+) [3] [%] | reduction of signal evoked by nicotinic acid (antagonist mode) [4] [%] | reduction of signal induced by sodium acetate (antagonist mode) [5] [%] | induction of activating effect of control agonist Lysophosphatidic acid [6] [%] | reduction of cAMP levels, efficiency compared to control agonist [7] [%] | local irritating effect (nasal mucosa; abdominal wall skin and subcutaneous tissue) [8] | toxic effects throughout the experiment ([8]; up to 28 days)
1 | leptin | 3 | did not differ |  |  |  |  |  |  | 
2 | CC[C@H](C)[C@H](NC(=O)[C@H](CO)NC(=O)[C@@H]1CCCN1C(=O)[C@@H](N)CCC(=O)O)C(=O)O [EPSI] (H-EPSI-OH) |  |  | 56.4±8.5 | 37.1±2.1 | 28.0±1.5 | 29.2±3.0 | 26.8±6.8 | no local irritating effect | no toxic effects
